Consider six compounds from patent US8673940B2, “Compounds for the treatment of diseases associated with amyloid or amyloid-like proteins” (AC Immune SA, priority 2006, dated 2014).

Where a name gives a salt, the structure may show the parent alone. Read-outs that look alike come from different tables or passages of the source.

The conditions of series [1]: prior-art compound, stated in background; cited from earlier work.
For series [2] the following is noted: prior-art compound, stated in background; cited from earlier work. This is another data set of the same source.
Series [3] has as its target T1, Oregon Green labelled Aβ1-42 (Homo sapiens, UniProt P05067).
T1 construct: DMSO-stock solutions of Oregon Green labelled Aβ1-42 1:1 with deionized water
Nature of the series: FCS-assay with 5 nM Oregon Green labelled Aβ-peptide (disaggregation of preformed aggregates). It is filed as biochemical. Here is the method: In order to analyse for the disaggregating properties of the compounds, preformed aggregates were used, which were induced straight before the FCS-measurement by diluting 500 nM DMSO-stock solutions of Oregon Green labelled Aβ1-42 1:1 with deionized water. The final concentration of Oregon Green labelled Aβ-peptide was 5 nM in 1×PBS and 3% DMSO. In order to improve the reproducibility of the measurements of the concentration dependencies of all samples were prepared fourfold.

Series [4] has as its target T2, amyloid beta (Aβ) 1-42 peptide (Homo sapiens, UniProt P05067).
T2 construct: amyloid beta (Aβ) 1-42 peptide; purchased Bachem
The experiment in a line: Thioflavin T spectrofluorescence assay, inhibition of Aβ1-42 aggregation. It is filed as biochemical. The procedure: A number of the small molecules were tested for their capacity to inhibit the aggregation of amyloid beta (Aβ) 1-42 peptide using a thioflavin T spectrofluorescence assay.
Aβ1-42 lyophilized powder (Bachem) was reconstituted in hexafluoroisopropanol (HFIP) to 1 mM. The peptide solution was sonicated for 15 min at room temperature, agitated overnight, and aliquots were placed into non-siliconized microcentrifuge tubes. The HFIP was then evaporated under a stream of argon. The resulting peptide film was dried under vacuum for 10 min, tightly sealed and stored at −80° C. until used.
To assay for the small molecule-mediated inhibition of Aβ1-42 aggregation, the small molecules were dissolved before each experiment in anhydrous dimethyl sulfoxide (DMSO, Sigma-Aldrich) to reach a concentration of 7.4 mM. Aβ1-42 peptide film was dissolved in DMSO to reach 400 μM. Assay solution in PBS buffer was prepared in non-siliconized incubation tubes to reach the following concentrations: 330 μM small molecule, 33 μM Aβ1-42, 10 μM thioflavin T (ThT), and 12.8% DMSO. Therefore, the final molar ratio of small molecule to Aβ1-42 was 10:1. A positive control without a small molecule was prepared to measure maximum RFU. A negative control without Aβ1-42 was prepared for each small molecule. 3-Aminopyrazole trimer (Trimer) was tested in all assays to ascertain reproducibility between independent experiments. The solutions were incubated for 24 hrs at 37° C., and the spectrofluorescence (relative fluorescence units; RFU) was read in six replicates in black 384-well assay plates (Perkin-Elmer) on a Perkin-Elmer FluoroCount spectrofluorometer. Inhibition of aggregation is expressed as mean % inhibition or ±1 standard deviation (SD) according to the following equation: […]
Cut-off criterium for the selection of functional molecules was defined at 50% inhibition capacity.
The small molecules were evaluated for their capacity to mediate inhibition of Aβ1-42 aggregation at a 10:1 small molecule to Aβ1-42 molar ratio. The results are expressed as mean±standard deviation of two independent experiments.

T1 sequence (P05067 672-713 limits assumed): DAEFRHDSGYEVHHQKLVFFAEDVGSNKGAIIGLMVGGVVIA
T2 sequence (P05067 672-713 limits assumed): as above

Consider 3-Aminopyrazole trimer, for which, in series [1], the carcinogenicity result is recorded as “carcinogenic” and the mutagenicity result is listed as “mutagenic”. Also, in series [2], the metabolic stability entry is given as “metabolically unstable”.
Take `Fc1ccc(-c2cc(NCc3cccc(NCc4ccccc4)n3)n[nH]2)cc1` [Compound 2t, N-Benzyl-6-((5-(4-fluorophenyl)-1H-pyrazol-3-ylamino)methyl)pyridin-2-amine]: in series [3] (200 nM compound), the “percentage of the "number of peaks" value obtained for the control reaction without added compound” value amounted to 67.2% and the “percentage of the "peaks x height" value obtained for the control reaction without added compound” value was found to be 53.3%. The inhibition (usually the relative decrease from the control value, in per cent) at 330 µM in series [4] (330 μM small molecule, 33 μM Aβ1-42 (10:1 molar ratio), 24 hrs at 37° C., mean ± SD of two independent experiments, read-out: % inhibition) was 86.8 ± 2.9%.
`Clc1ccc(-c2csc(NCc3cnc(NCc4ccccc4)s3)n2)cc1` [Compound 2ak, N-Benzyl-5-((4-(4-chlorophenyl)thiazol-2-ylamino)methyl)thiazol-2-amine]: the melting point (as a rule, the temperature of the solid-liquid transition) is 105 to 106 °C. In series [4] (24 h), this compound came in with an inhibition at 330 µM of 37.2 ± 14.8%.
For `CCCCNc1cccc(CNc2cc(-c3ccc(F)cc3)[nH]n2)n1` [Compound 2am, N-Butyl-6-((5-(4-fluorophenyl)-1H-pyrazol-3-ylamino)methyl)pyridin-2-amine], the melting point lay in the range of 93 to 94 °C.
The same measure, in the same setting: for `c1ccc(CNc2ncc(CNc3nc(-c4cccs4)cs3)s2)cc1` (as salt: hydrochloride) [Compound 2al, N-Benzyl-5-((4-(thiophen-2-yl)thiazol-2-ylamino)methyl)thiazol-2-amine dihydrochloride] the value was 97 to 99 °C.
As to `CCCNc1ccc(NCc2ccc(NCc3ccc(NCCC)nc3)nc2)nc1` [Compound 2c, N^5-Propyl-N^2-((6-((6-(propylamino)pyridin-3-yl)methylamino)pyridin-3-yl)methyl)pyridine-2,5-diamine], in series [3] (100 nM compound), the “percentage of the "number of peaks" value obtained for the control reaction without added compound” value stood at 29.4% and the “percentage of the "peaks x height" value obtained for the control reaction without added compound” value is 26.6%. Further, in series [3] (200 nM compound), the “percentage of the "number of peaks" value obtained for the control reaction without added compound” value is given as 51.2% and the “percentage of the "peaks x height" value obtained for the control reaction without added compound” value turned out to be 45.1%.
